Results reported in PubChem BioAssay AID1745844 (Carcinogenic Potency Database (CPDB), 2022).

System: rodent lifetime carcinogenesis bioassay, tumor incidence TD50
Test: carcinogenic potency in animals, long-term in vivo studies, CPDB compilation (AID 1745844)
Settings: by gavage

In the case of `c1ccoc1`, the TD50 (mouse, strain B6C3F1, females, site: adrenal medulla + liver, lesion: pheochromocytoma, benign + hepatocellular adenoma + hepatocellular carcinoma, dosed 104 weeks, study length 105 weeks) is reported as 2.26 mg/kg/day, the TD50 (mouse, strain B6C3F1, females, site: adrenal medulla, lesion: pheochromocytoma, benign, dosed 104 weeks, study length 105 weeks) is reported as 36 mg/kg/day and the TD50 (mouse, strain B6C3F1, females, site: any site (literature study), lesion: several types, types named in the paper, dosed 104 weeks, study length 105 weeks) is reported as 2.81 mg/kg/day. It also gave a TD50 (mouse, strain B6C3F1, females, site: forestomach, lesion: squamous-cell papilloma, dosed 104 weeks, study length 105 weeks) of 23.8 mg/kg/day, a TD50 (mouse, strain B6C3F1, females, site: liver, lesion: carcinoma + hepatocellular carcinoma, dosed 104 weeks, study length 105 weeks) of 6.85 mg/kg/day and a TD50 (mouse, strain B6C3F1, females, site: liver, lesion: hepatocellular adenoma + hepatocellular carcinoma + neoplastic nodule, dosed 104 weeks, study length 105 weeks) of 2.19 mg/kg/day. It also gave a TD50 (mouse, strain B6C3F1, females, site: liver, lesion: hepatocellular adenoma + hepatocellular carcinoma, dosed 104 weeks, study length 105 weeks) of 2.19 mg/kg/day, a TD50 (mouse, strain B6C3F1, females, site: liver, lesion: hepatocellular adenoma, dosed 104 weeks, study length 105 weeks) of 2.26 mg/kg/day and a TD50 (mouse, strain B6C3F1, females, site: lung, lesion: alveolar/bronchiolar adenoma + alveolar/bronchiolar carcinoma, dosed 104 weeks, study length 105 weeks) of 38.5 mg/kg/day. For the same compound, the TD50 (mouse, strain B6C3F1, males, site: adrenal medulla + liver, lesion: pheochromocytoma, benign + hepatocellular adenoma + hepatocellular carcinoma, dosed 104 weeks, study length 105 weeks) was 3.6 mg/kg/day, the TD50 (mouse, strain B6C3F1, males, site: adrenal medulla, lesion: pheochromocytoma, benign, dosed 104 weeks, study length 105 weeks) was 20.1 mg/kg/day and the TD50 (mouse, strain B6C3F1, males, site: any site (literature study), lesion: several types, types named in the paper, dosed 104 weeks, study length 105 weeks) was 5.43 mg/kg/day. It also gave a TD50 (mouse, strain B6C3F1, males, site: forestomach, lesion: squamous-cell papilloma, dosed 104 weeks, study length 105 weeks) of 64.6 mg/kg/day, a TD50 (mouse, strain B6C3F1, males, site: liver, lesion: hepatocellular adenoma + hepatocellular carcinoma + neoplastic nodule, dosed 104 weeks, study length 105 weeks) of 3.6 mg/kg/day and a TD50 (mouse, strain B6C3F1, males, site: liver, lesion: hepatocellular adenoma + hepatocellular carcinoma, dosed 104 weeks, study length 105 weeks) of 3.6 mg/kg/day. For the same compound, the TD50 (mouse, strain B6C3F1, males, site: liver, lesion: hepatocellular adenoma, dosed 104 weeks, study length 105 weeks) was 4.02 mg/kg/day, the TD50 (mouse, strain B6C3F1, males, site: liver, lesion: hepatocellular carcinoma, dosed 104 weeks, study length 105 weeks) was 5.13 mg/kg/day and the TD50 (mouse, strain B6C3F1, males, site: lung, lesion: alveolar/bronchiolar adenoma + alveolar/bronchiolar carcinoma, dosed 104 weeks, study length 105 weeks) was 21.5 mg/kg/day. It also gave a TD50 (mouse, strain B6C3F1, males, site: lung, lesion: alveolar/bronchiolar adenoma, dosed 104 weeks, study length 105 weeks) of 18.2 mg/kg/day, a TD50 (mouse, strain B6C3F1, males, site: multiple organs, lesion: malignant lymphoma, histiocytic type + malignant lymphoma, mixed type, dosed 104 weeks, study length 105 weeks) of 11 mg/kg/day and a TD50 (rat, strain Fischer 344, females, site: any site (literature study), lesion: several types, types named in the paper, dosed 103 weeks, study length 104 weeks) of 2.83 mg/kg/day. For the same compound, the TD50 (rat, strain Fischer 344, females, site: liver + multiple organs, lesion: cholangiocarcinoma + hepatocellular adenoma + hepatocellular carcinoma + mononuclear-cell leukemia, dosed 103 weeks, study length 104 weeks) was 0.543 mg/kg/day, the TD50 (rat, strain Fischer 344, females, site: liver, lesion: cholangiocarcinoma, dosed 103 weeks, study length 104 weeks) was 0.395 mg/kg/day and the TD50 (rat, strain Fischer 344, females, site: liver, lesion: hepatocellular adenoma + hepatocellular carcinoma + neoplastic nodule, dosed 103 weeks, study length 104 weeks) was 11.2 mg/kg/day. For the same compound, the TD50 (rat, strain Fischer 344, females, site: liver, lesion: hepatocellular adenoma + hepatocellular carcinoma, dosed 103 weeks, study length 104 weeks) was 11.2 mg/kg/day, the TD50 (rat, strain Fischer 344, females, site: liver, lesion: hepatocellular adenoma, dosed 103 weeks, study length 104 weeks) was 11.8 mg/kg/day and the TD50 (rat, strain Fischer 344, females, site: multiple organs, lesion: mononuclear-cell leukemia, dosed 103 weeks, study length 104 weeks) was 5.84 mg/kg/day. For the same compound, the TD50 (rat, strain Fischer 344, females, site: urinary bladder, lesion: transitional-cell papilloma, dosed 103 weeks, study length 104 weeks) was 50.7 mg/kg/day, the TD50 (rat, strain Fischer 344, males, site: adrenal medulla, lesion: pheochromocytoma, benign, dosed 103 weeks, study length 104 weeks) was 12.7 mg/kg/day and the TD50 (rat, strain Fischer 344, males, site: any site (literature study), lesion: several types, types named in the paper, dosed 103 weeks, study length 104 weeks) was 1.96 mg/kg/day. For the same compound, the TD50 (rat, strain Fischer 344, males, site: liver + multiple organs, lesion: cholangiocarcinoma + hepatocellular adenoma + hepatocellular carcinoma + mononuclear-cell leukemia, dosed 103 weeks, study length 104 weeks) was 0.529 mg/kg/day, the TD50 (rat, strain Fischer 344, males, site: liver, lesion: cholangiocarcinoma, dosed 103 weeks, study length 104 weeks) was 0.398 mg/kg/day and the TD50 (rat, strain Fischer 344, males, site: liver, lesion: hepatocellular adenoma + hepatocellular carcinoma + neoplastic nodule, dosed 103 weeks, study length 104 weeks) was 2.31 mg/kg/day. For the same compound, the TD50 (rat, strain Fischer 344, males, site: liver, lesion: hepatocellular adenoma + hepatocellular carcinoma, dosed 103 weeks, study length 104 weeks) was 2.31 mg/kg/day, the TD50 (rat, strain Fischer 344, males, site: liver, lesion: hepatocellular adenoma, dosed 103 weeks, study length 104 weeks) was 3.1 mg/kg/day and the TD50 (rat, strain Fischer 344, males, site: liver, lesion: hepatocellular carcinoma, dosed 103 weeks, study length 104 weeks) was 6.18 mg/kg/day. The TD50 (rat, strain Fischer 344, males, site: multiple organs, lesion: mononuclear-cell leukemia, dosed 103 weeks, study length 104 weeks) was 4.64 mg/kg/day, the TD50 (rat, strain Fischer 344, males, site: preputial gland, lesion: adenoma + adenoma, bilateral, dosed 103 weeks, study length 104 weeks) was 21.5 mg/kg/day and the TD50 (rat, strain Fischer 344, males, site: skin, lesion: keratoacanthoma, dosed 103 weeks, study length 104 weeks) was 16.4 mg/kg/day. For the same compound, the TD50 (rat, strain Fischer 344, males, site: subcutaneous tissue, lesion: fibroma, dosed 103 weeks, study length 104 weeks) was 18.1 mg/kg/day and the TD50 (rat, strain Fischer 344, males, site: testis, lesion: interstitial-cell adenoma, dosed 103 weeks, study length 104 weeks) was 3.14 mg/kg/day.
